According to the NIST ThermoML archive (doi:10.1016/j.jct.2004.12.008):

Experiment: xn = mol fraction of the nth substance listed
Conditions: 101 kPa, Liquid

O=[N+]([O-])c1ccccc1 [nitrobenzene] + Cc1cccc(C)c1
Conditions	mass density [kg/m3]
293.15 K, x2 = 0	1202.95
293.15 K, x2 = 0.0549	1181.56
293.15 K, x2 = 0.1248	1154.92
293.15 K, x2 = 0.1832	1133.14
293.15 K, x2 = 0.2489	1109.13
293.15 K, x2 = 0.3134	1086.03
293.15 K, x2 = 0.3681	1066.8
293.15 K, x2 = 0.4234	1047.66
293.15 K, x2 = 0.4892	1025.28
293.15 K, x2 = 0.5321	1010.91
293.15 K, x2 = 0.6013	988.09
293.15 K, x2 = 0.6539	971.01
293.15 K, x2 = 0.7242	948.56
293.15 K, x2 = 0.7811	930.68
293.15 K, x2 = 0.8631	905.36
293.15 K, x2 = 0.9321	884.44
303.15 K, x2 = 0	1193.56
303.15 K, x2 = 0.0478	1174.85
303.15 K, x2 = 0.1132	1149.78
303.15 K, x2 = 0.1812	1124.32
303.15 K, x2 = 0.2343	1104.85
303.15 K, x2 = 0.2943	1083.27
303.15 K, x2 = 0.3535	1062.36
303.15 K, x2 = 0.4143	1041.29
303.15 K, x2 = 0.4711	1021.95
303.15 K, x2 = 0.5243	1004.13
303.15 K, x2 = 0.6123	975.24
303.15 K, x2 = 0.6811	953.14
303.15 K, x2 = 0.7423	933.82
303.15 K, x2 = 0.8132	911.82
303.15 K, x2 = 0.8834	890.44
303.15 K, x2 = 0.9432	872.53
313.15 K, x2 = 0	1183.37
313.15 K, x2 = 0.0723	1155.17
313.15 K, x2 = 0.1289	1133.64
313.15 K, x2 = 0.1732	1117.09
313.15 K, x2 = 0.2212	1099.45
313.15 K, x2 = 0.2811	1077.85
313.15 K, x2 = 0.3635	1048.82
313.15 K, x2 = 0.4244	1027.87
313.15 K, x2 = 0.4823	1008.31
313.15 K, x2 = 0.5423	988.4
313.15 K, x2 = 0.6131	965.35
313.15 K, x2 = 0.6732	946.15
313.15 K, x2 = 0.749	922.4
313.15 K, x2 = 0.8313	897.16
313.15 K, x2 = 0.8724	884.76
313.15 K, x2 = 0.9331	866.7
323.15 K, x2 = 0	1172.38
323.15 K, x2 = 0.0698	1145.18
323.15 K, x2 = 0.1321	1121.54
323.15 K, x2 = 0.1832	1102.55
323.15 K, x2 = 0.2576	1075.53
323.15 K, x2 = 0.3139	1055.55
323.15 K, x2 = 0.3781	1033.23
323.15 K, x2 = 0.4527	1007.89
323.15 K, x2 = 0.5198	985.6
323.15 K, x2 = 0.5631	971.45
323.15 K, x2 = 0.6398	946.86
323.15 K, x2 = 0.7043	926.6
323.15 K, x2 = 0.7731	905.4
323.15 K, x2 = 0.8343	886.88
323.15 K, x2 = 0.8623	878.51
323.15 K, x2 = 0.9423	854.95
333.15 K, x2 = 0	1160.59
333.15 K, x2 = 0.0499	1141.14
333.15 K, x2 = 0.1244	1112.83
333.15 K, x2 = 0.1674	1096.86
333.15 K, x2 = 0.234	1072.65
333.15 K, x2 = 0.3089	1046.1
333.15 K, x2 = 0.3598	1028.47
333.15 K, x2 = 0.4242	1006.59
333.15 K, x2 = 0.4972	982.35
333.15 K, x2 = 0.5672	959.63
333.15 K, x2 = 0.6319	939.07
333.15 K, x2 = 0.7133	913.77
333.15 K, x2 = 0.7632	898.55
333.15 K, x2 = 0.8347	877.13
333.15 K, x2 = 0.8824	863.08
333.15 K, x2 = 0.9323	848.58
343.15 K, x2 = 0	1148
343.15 K, x2 = 0.0598	1124.88
343.15 K, x2 = 0.1123	1105.06
343.15 K, x2 = 0.1842	1078.58
343.15 K, x2 = 0.2542	1053.5
343.15 K, x2 = 0.3243	1029.04
343.15 K, x2 = 0.3831	1008.98
343.15 K, x2 = 0.4425	989.14
343.15 K, x2 = 0.5131	966.07
343.15 K, x2 = 0.5728	946.96
343.15 K, x2 = 0.6392	926.14
343.15 K, x2 = 0.6901	910.47
343.15 K, x2 = 0.7532	891.38
343.15 K, x2 = 0.8242	870.31
343.15 K, x2 = 0.8731	856.05
343.15 K, x2 = 0.9238	841.48
353.15 K, x2 = 0	1134.61
353.15 K, x2 = 0.0532	1114.19
353.15 K, x2 = 0.1289	1085.92
353.15 K, x2 = 0.1984	1060.73
353.15 K, x2 = 0.2429	1044.96
353.15 K, x2 = 0.3092	1021.96
353.15 K, x2 = 0.3711	1000.98
353.15 K, x2 = 0.4248	983.16
353.15 K, x2 = 0.4891	962.26
353.15 K, x2 = 0.5518	942.3
353.15 K, x2 = 0.6138	922.97
353.15 K, x2 = 0.6731	904.84
353.15 K, x2 = 0.7294	887.93
353.15 K, x2 = 0.8013	866.76
353.15 K, x2 = 0.8673	847.71
353.15 K, x2 = 0.9451	825.73

O=[N+]([O-])c1ccccc1 [nitrobenzene] + Cc1ccccc1
Conditions	mass density [kg/m3]
293.15 K, x2 = 0	1202.95
293.15 K, x2 = 0.0629	1181.81
293.15 K, x2 = 0.1476	1153.37
293.15 K, x2 = 0.2138	1131.14
293.15 K, x2 = 0.2787	1109.35
293.15 K, x2 = 0.3587	1082.5
293.15 K, x2 = 0.4142	1063.89
293.15 K, x2 = 0.4831	1040.77
293.15 K, x2 = 0.5232	1027.31
293.15 K, x2 = 0.5771	1009.22
293.15 K, x2 = 0.6321	990.75
293.15 K, x2 = 0.6832	973.59
293.15 K, x2 = 0.7234	960.08
293.15 K, x2 = 0.8032	933.21
293.15 K, x2 = 0.8562	915.34
293.15 K, x2 = 0.9213	893.37
303.15 K, x2 = 0	1193.56
303.15 K, x2 = 0.0567	1174.37
303.15 K, x2 = 0.1332	1148.52
303.15 K, x2 = 0.185	1131.03
303.15 K, x2 = 0.2304	1115.73
303.15 K, x2 = 0.2798	1099.1
303.15 K, x2 = 0.3674	1069.64
303.15 K, x2 = 0.4026	1057.82
303.15 K, x2 = 0.4656	1036.69
303.15 K, x2 = 0.5072	1022.73
303.15 K, x2 = 0.5782	998.94
303.15 K, x2 = 0.6576	972.35
303.15 K, x2 = 0.7235	950.27
303.15 K, x2 = 0.7965	925.82
303.15 K, x2 = 0.8643	903.09
303.15 K, x2 = 0.9354	879.23
313.15 K, x2 = 0	1183.37
313.15 K, x2 = 0.0674	1160.46
313.15 K, x2 = 0.1534	1131.33
313.15 K, x2 = 0.1978	1116.33
313.15 K, x2 = 0.2576	1096.15
313.15 K, x2 = 0.3254	1073.34
313.15 K, x2 = 0.3789	1055.38
313.15 K, x2 = 0.4577	1028.98
313.15 K, x2 = 0.5067	1012.59
313.15 K, x2 = 0.5564	996
313.15 K, x2 = 0.6134	976.98
313.15 K, x2 = 0.674	956.78
313.15 K, x2 = 0.7435	933.64
313.15 K, x2 = 0.8134	910.37
313.15 K, x2 = 0.865	893.2
313.15 K, x2 = 0.9134	877.09
323.15 K, x2 = 0	1172.38
323.15 K, x2 = 0.0479	1156.07
323.15 K, x2 = 0.1289	1128.59
323.15 K, x2 = 0.1874	1108.81
323.15 K, x2 = 0.2671	1081.99
323.15 K, x2 = 0.3371	1058.51
323.15 K, x2 = 0.3961	1038.77
323.15 K, x2 = 0.4628	1016.54
323.15 K, x2 = 0.5342	992.79
323.15 K, x2 = 0.6056	969.11
323.15 K, x2 = 0.6854	942.7
323.15 K, x2 = 0.7245	929.78
323.15 K, x2 = 0.8056	903.01
323.15 K, x2 = 0.8543	886.94
323.15 K, x2 = 0.8965	873.03
323.15 K, x2 = 0.9423	857.93
333.15 K, x2 = 0	1160.59
333.15 K, x2 = 0.0575	1141.04
333.15 K, x2 = 0.1435	1111.97
333.15 K, x2 = 0.2345	1081.38
333.15 K, x2 = 0.2978	1060.21
333.15 K, x2 = 0.3534	1041.68
333.15 K, x2 = 0.4213	1019.15
333.15 K, x2 = 0.4896	996.55
333.15 K, x2 = 0.5634	972.23
333.15 K, x2 = 0.6233	952.54
333.15 K, x2 = 0.6856	932.12
333.15 K, x2 = 0.7435	913.17
333.15 K, x2 = 0.7947	896.44
333.15 K, x2 = 0.8634	874.02
333.15 K, x2 = 0.9067	859.9
333.15 K, x2 = 0.9424	848.26
343.15 K, x2 = 0	1148
343.15 K, x2 = 0.0523	1130.3
343.15 K, x2 = 0.1389	1101.17
343.15 K, x2 = 0.1924	1083.27
343.15 K, x2 = 0.2684	1057.97
343.15 K, x2 = 0.3289	1037.94
343.15 K, x2 = 0.3889	1018.15
343.15 K, x2 = 0.4521	997.4
343.15 K, x2 = 0.5123	977.7
343.15 K, x2 = 0.5931	951.38
343.15 K, x2 = 0.6532	931.86
343.15 K, x2 = 0.7234	909.14
343.15 K, x2 = 0.7923	886.89
343.15 K, x2 = 0.8534	867.19
343.15 K, x2 = 0.8811	858.27
343.15 K, x2 = 0.9421	838.64
353.15 K, x2 = 0	1134.61
353.15 K, x2 = 0.0442	1119.76
353.15 K, x2 = 0.1247	1092.87
353.15 K, x2 = 0.1842	1073.14
353.15 K, x2 = 0.2479	1052.11
353.15 K, x2 = 0.2943	1036.87
353.15 K, x2 = 0.3479	1019.33
353.15 K, x2 = 0.4109	998.83
353.15 K, x2 = 0.4671	980.61
353.15 K, x2 = 0.5239	962.27
353.15 K, x2 = 0.5791	944.5
353.15 K, x2 = 0.6321	927.5
353.15 K, x2 = 0.7913	876.69
353.15 K, x2 = 0.8423	860.48
353.15 K, x2 = 0.8742	850.36
353.15 K, x2 = 0.9311	832.32
